Results as given in publication PMC6599079 (Nature Communications, 2019).
Where two headings read alike, the source gives them in different places. Square brackets hold non-standard residues; d marks the D form. Ends that are not written are not given here. Met(O) = CS(=O)CC[C@H](N)C(=O)O

Tests used:
H-2D^b = molecular target: T1, H-2D^b (Mus musculus, UniProt P01899); assay: biochemical; assay type: binding
T1 sequence (P01899 25-362): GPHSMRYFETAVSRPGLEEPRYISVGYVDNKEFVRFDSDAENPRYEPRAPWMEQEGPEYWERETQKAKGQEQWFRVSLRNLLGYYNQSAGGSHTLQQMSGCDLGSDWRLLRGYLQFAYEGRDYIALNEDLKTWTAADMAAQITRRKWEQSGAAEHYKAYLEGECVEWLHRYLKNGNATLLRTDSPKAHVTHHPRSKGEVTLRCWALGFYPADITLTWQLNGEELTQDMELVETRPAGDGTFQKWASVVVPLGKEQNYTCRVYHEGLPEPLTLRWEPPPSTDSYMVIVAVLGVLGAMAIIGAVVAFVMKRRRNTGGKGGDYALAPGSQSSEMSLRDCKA
T1 sequence (P01887 21-119 partner): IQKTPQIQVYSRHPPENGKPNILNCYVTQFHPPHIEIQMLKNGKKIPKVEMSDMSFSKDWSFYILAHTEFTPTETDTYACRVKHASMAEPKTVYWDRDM

H-2K^b = molecular target: T2, H-2K^b (Mus musculus, UniProt P01901); assay: biochemical; assay type: binding
T2 sequence (P01901 22-369): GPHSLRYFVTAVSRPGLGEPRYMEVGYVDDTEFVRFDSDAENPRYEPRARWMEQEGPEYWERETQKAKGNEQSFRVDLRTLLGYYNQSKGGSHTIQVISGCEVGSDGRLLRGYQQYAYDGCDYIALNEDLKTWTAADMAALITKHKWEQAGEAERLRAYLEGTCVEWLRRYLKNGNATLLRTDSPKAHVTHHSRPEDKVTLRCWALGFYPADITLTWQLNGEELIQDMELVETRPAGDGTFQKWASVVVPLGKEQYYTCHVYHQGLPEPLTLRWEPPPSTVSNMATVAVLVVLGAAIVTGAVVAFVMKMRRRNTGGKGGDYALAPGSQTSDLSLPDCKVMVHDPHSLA
T2 sequence (P01887 21-119 partner): T1 sequence (P01887 21-119 partner)

splenic CD8^+ T cells = assay type: in vivo, C57BL/6 mice; conditions: for IFNg#: spleen; for CTL response, ICS: file clean_CTLresponse_ICS_new, tissue not given
[1] = molecular target: H-2b MHC class I (allele not given); assay: Classical competition assay of peptide binding to purified MHC; restricting allele not printed in the epitope label of this file; set-up: species or system mouse; conditions: epitope label without allele; file clean_file9_IC50; unit inferred
[2] = Measured IC50 of each peptide, H-2D^b
[3] = Measured IC50 of each peptide, H-2K^b
[4] = 1st EXP, number of IFNg+ CD8 cells = IFNg% (w/o background) x CD8# 5103400, replicate Mouse 2
[5] = 1st EXP, number of IFNg+ CD8 cells = IFNg% (w/o background) x CD8# 5464800, replicate Mouse 3
[6] = 1st EXP, number of IFNg+ CD8 cells = IFNg% (w/o background) x CD8# 5668200, replicate Mouse 4
[7] = 1st EXP, number of IFNg+ CD8 cells = IFNg% (w/o background) x CD8# 5724000, replicate Mouse 5
[8] = 1st EXP, number of IFNg+ CD8 cells = IFNg% (w/o background) x CD8# 6077000, replicate Mouse 1
[9] = 2nd EXP, number of IFNg+ CD8 cells per spleen (CD8# 2541000), Mouse 5
[10] = 2nd EXP, number of IFNg+ CD8 cells per spleen (CD8# 2956300), Mouse 4
[11] = 2nd EXP, number of IFNg+ CD8 cells per spleen (CD8# 3816800), Mouse 1
[12] = 2nd EXP, number of IFNg+ CD8 cells per spleen (CD8# 4765200), Mouse 3
[13] = 2nd EXP, number of IFNg+ CD8 cells per spleen (CD8# 5219500), Mouse 2
[14] = 2nd EXP, number of IFNg+ CD8 cells per spleen (CD8# 5392600), Mouse 6
[15] = epitopes labelled Kb, file clean_file9_IC50, unit inferred, read-out: IC50

With `CC[C@H](C)[C@H](NC(=O)[C@H](CC(N)=O)NC(=O)[C@@H](N)CCSC)C(=O)N[C@@H](CCC(N)=O)C(=O)N[C@@H](Cc1ccccc1)C(=O)N[C@H](C(=O)N[C@@H](C)C(=O)N[C@H](C(=O)O)C(C)C)[C@@H](C)O` [HA402–409] the IC50 (H-2D^b; [2]) was 6180 nM and the IC50 (H-2K^b; [3]) was 3 nM.
In the case of SSLENFRAYV [PA224–233], the IC50 (H-2D^b; [2]) is reported as 0.16 nM and the IC50 (H-2K^b; [3]) is reported as 38 nM.
For 2 (TLTSANHA[Met(O)]I) [compound 2], the “IFNg#” value (splenic CD8^+ T cells; [4]) was 1002.82, the “IFNg#” value (splenic CD8^+ T cells; [5]) was 6300.91 and the “IFNg#” value (splenic CD8^+ T cells; [6]) was 49270.8. For the same compound, the “IFNg#” value (splenic CD8^+ T cells; [7]) was 453.913, the “IFNg#” value (splenic CD8^+ T cells; [8]) was 8544.26 and the “IFNg#” value (splenic CD8^+ T cells; [9]) was -2541. For the same compound, the “IFNg#” value (splenic CD8^+ T cells; [10]) was 765.09, the “IFNg#” value (splenic CD8^+ T cells; [11]) was 334.733 and the “IFNg#” value (splenic CD8^+ T cells; [12]) was 3334.69. The “IFNg#” value (splenic CD8^+ T cells; [13]) was 2635.85 and the “IFNg#” value (splenic CD8^+ T cells; [14]) was -650.348.
LSLRNPILV [PB1-F2_62–70] showed an IC50 (H-2D^b; [2]) of 18 nM and an IC50 (H-2K^b; [3]) of 12400 nM.
Work on SFQDILLRM [NS2_8–16] yielded an IC50 (H-2D^b; [2]) of 10700 nM and an IC50 (H-2K^b; [3]) of 185 nM.
With SSLPYQNI [HA304–311] the IC50 (H-2D^b; [2]) was greater than 40000 nM and the IC50 (H-2K^b; [3]) was 4.7 nM.
VYIEVLHL [PB2_227–234] was tested, and the IC50 (H-2D^b; [2]) was 20900 nM and the IC50 (H-2K^b; [3]) was 2.8 nM.
Compound IGRFYIQM [NP36–43] has an IC50 (H-2D^b; [2]) of 3300 nM and an IC50 (H-2K^b; [3]) of 1.9 nM.
Work on NGITNKVNTVI [HA389–399] yielded an IC50 (H-2D^b; [2]) of 118 nM and an IC50 (H-2K^b; [3]) of 22000 nM.
With 19 (CFKFDHL) [compound 19] the “IFNg#” value (splenic CD8^+ T cells; [4]) was 34310.2, the “IFNg#” value (splenic CD8^+ T cells; [5]) was 27968.8 and the “IFNg#” value (splenic CD8^+ T cells; [6]) was 21326.6. For the same compound, the “IFNg#” value (splenic CD8^+ T cells; [7]) was 46581.9, the “IFNg#” value (splenic CD8^+ T cells; [8]) was 28197.3 and the “IFNg#” value (splenic CD8^+ T cells; [9]) was 17050.1. The “IFNg#” value (splenic CD8^+ T cells; [10]) was 2143.61, the “IFNg#” value (splenic CD8^+ T cells; [11]) was 22289 and the “IFNg#” value (splenic CD8^+ T cells; [12]) was 7728.2. The “IFNg#” value (splenic CD8^+ T cells; [13]) was 8361.64 and the “IFNg#” value (splenic CD8^+ T cells; [14]) was 5535.5.
AGLKNDLLENL [M1_227–237] gave an IC50 (H-2D^b; [2]) of 5280 nM and an IC50 (H-2K^b; [3]) of 3310 nM.
SQLKNNAKEI [HA467–476] was tested, and the IC50 (H-2D^b; [2]) was 173 nM and the IC50 (H-2K^b; [3]) was greater than 40000 nM.
With VTVTHSVNL [HA41–49] the IC50 (H-2D^b; [2]) was 872 nM and the IC50 (H-2K^b; [3]) was 7.9 nM.
For HA-41-49 (VTVTHSVNL), the “CTL response, ICS” value (splenic CD8^+ T cells; Mouse1) was 14900.8, the “CTL response, ICS” value (splenic CD8^+ T cells; Mouse2) was 4695.13 and the “CTL response, ICS” value (splenic CD8^+ T cells; Mouse3) was 8913.09. The “CTL response, ICS” value (splenic CD8^+ T cells; Mouse4) was 22267.5, the “CTL response, ICS” value (splenic CD8^+ T cells; Mouse5) was 32844.3 and the “CTL response, ICS” value (splenic CD8^+ T cells; Mouse11) was 2884.36. For the same compound, the “CTL response, ICS” value (splenic CD8^+ T cells; Mouse12) was 3836.33, the “CTL response, ICS” value (splenic CD8^+ T cells; Mouse13) was 2696.15 and the “CTL response, ICS” value (splenic CD8^+ T cells; Mouse14) was 546.324. For the same compound, the “CTL response, ICS” value (splenic CD8^+ T cells; Mouse15) was 0, the “CTL response, ICS” value (splenic CD8^+ T cells; Mouse16) was 865.512 and the IC50 [1] was 872 nM.
For RTFSFQLI [NS2_114–121], the IC50 (H-2D^b; [2]) was greater than 40000 nM and the IC50 (H-2K^b; [3]) was 4.7 nM.
SSYRRPVGI [PB1_703–711] showed an IC50 (H-2D^b; [2]) of 29000 nM and an IC50 (H-2K^b; [3]) of 1.9 nM.
SSLENFRAYV [PA-224-233Db] showed an IC50 (H-2D^b; epitopes labelled Db, file clean_file9_IC50, unit inferred, read-out: IC50) of 0.155 nM.
Compound `CSCC[C@H](NC(=O)[C@@H](NC(=O)[C@H](CCC(=O)O)NC(=O)[C@H](CCSC)NC(=O)[C@H](CC(N)=O)NC(=O)[C@H](CCC(=O)O)NC(=O)[C@H](CC(N)=O)NC(=O)[C@H](CO)NC(=O)[C@H](C)N)[C@@H](C)O)C(=O)O` [NP366–374] has an IC50 (H-2D^b; [2]) of 18 nM and an IC50 (H-2K^b; [3]) greater than 40000 nM.
In the case of KNMEYDAV [PB1_653–660], the IC50 (H-2D^b; [2]) is reported as greater than 40000 nM and the IC50 (H-2K^b; [3]) is reported as 156 nM.
YQNIHPVTI [HA308–316] was tested, and the IC50 (H-2D^b; [2]) was 1970 nM and the IC50 (H-2K^b; [3]) was 1140 nM.
SGPDNGAVAVL [NA181–191] showed an IC50 (H-2D^b; [2]) of 64 nM and an IC50 (H-2K^b; [3]) of 585 nM.
For SSYRRPVGI [PB1-703-711Kb], the IC50 (H-2K^b; [15]) was 1.94 nM.
SGPDNGAVAV [NA181–190] gave an IC50 (H-2D^b; [2]) of 65 nM and an IC50 (H-2K^b; [3]) of 262 nM.
In the case of VYIEVLHL [PB2-227-234Kb], the IC50 (H-2K^b; [15]) is reported as 2.77 nM.
In the case of MGLIYNRM [M1_128–135], the IC50 (H-2D^b; [2]) is reported as greater than 40000 nM and the IC50 (H-2K^b; [3]) is reported as 92.6 nM.
